This passage reports IC50 results from patent US20250263405A1, “HISTONE DEACETYLASE 6 INHIBITOR COMPOUNDS AND USES THEREOF” (VALO HEALTH, INC., priority 2021, published 2025).

Where only a bound is given, the exact number is not on record here.

Sequence of HDAC6 (Q9UBN7 whole entry): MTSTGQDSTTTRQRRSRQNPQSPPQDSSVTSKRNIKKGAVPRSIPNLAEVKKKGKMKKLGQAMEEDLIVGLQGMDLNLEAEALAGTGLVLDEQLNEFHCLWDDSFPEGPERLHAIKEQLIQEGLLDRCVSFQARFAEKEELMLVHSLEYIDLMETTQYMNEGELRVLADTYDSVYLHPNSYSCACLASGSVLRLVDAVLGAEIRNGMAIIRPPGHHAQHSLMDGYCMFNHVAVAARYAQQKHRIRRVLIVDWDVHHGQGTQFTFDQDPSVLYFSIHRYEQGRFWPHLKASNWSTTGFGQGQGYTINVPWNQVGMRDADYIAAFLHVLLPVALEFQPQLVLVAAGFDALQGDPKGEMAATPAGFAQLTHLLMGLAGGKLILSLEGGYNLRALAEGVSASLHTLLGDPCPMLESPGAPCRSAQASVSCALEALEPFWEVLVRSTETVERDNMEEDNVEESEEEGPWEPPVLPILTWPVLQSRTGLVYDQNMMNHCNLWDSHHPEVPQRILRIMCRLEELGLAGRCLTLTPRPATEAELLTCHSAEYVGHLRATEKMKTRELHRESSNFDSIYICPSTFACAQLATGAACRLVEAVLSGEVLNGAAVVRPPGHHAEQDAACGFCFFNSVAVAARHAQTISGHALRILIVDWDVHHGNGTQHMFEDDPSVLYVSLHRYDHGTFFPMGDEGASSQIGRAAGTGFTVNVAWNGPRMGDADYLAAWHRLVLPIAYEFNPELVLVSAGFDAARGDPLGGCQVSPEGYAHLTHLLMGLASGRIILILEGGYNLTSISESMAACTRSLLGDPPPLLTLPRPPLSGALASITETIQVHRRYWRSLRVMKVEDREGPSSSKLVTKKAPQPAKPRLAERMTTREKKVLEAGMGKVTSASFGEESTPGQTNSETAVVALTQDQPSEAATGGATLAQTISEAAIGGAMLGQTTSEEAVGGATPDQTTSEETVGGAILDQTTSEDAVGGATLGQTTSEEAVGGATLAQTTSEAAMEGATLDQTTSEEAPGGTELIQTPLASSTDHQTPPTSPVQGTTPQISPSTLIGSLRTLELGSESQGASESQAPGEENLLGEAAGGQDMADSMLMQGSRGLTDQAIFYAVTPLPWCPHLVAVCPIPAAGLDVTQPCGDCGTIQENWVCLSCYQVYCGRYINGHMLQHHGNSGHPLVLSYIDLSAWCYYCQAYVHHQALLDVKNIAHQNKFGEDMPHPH

This test has as its target HDAC6 (Homo sapiens (Human), UniProt Q9UBN7). The test is described as follows: HDAC6 TR-FRET displacement assay. In kind it is binding. As to conditions: displacement of fluorescein labeled tracer from HDAC6; 2 nM HDAC6, 1 nM tracer, 0.5 nM Tb-anti-GST antibody; 30 min pre-incubation, 6 hours at 25° C. An excerpt:
HDAC6 and Tb-anti-GST antibody were purchased from Signal Chem (cat #PC124) and Cisbio (cat #61GSTTAH), respectively. HEPES, pH 7.5 was purchased from Teknova (Cat #H1575). All other buffer components, NaCl (cat #S5150), KCl (cat #60121), Triton X-100 (cat #T9284), GSH (cat #G4251), BGG (cat #G5009), and BSA (cat #A2153) were purchased from SIGMA.
Displacement of fluorescein labeled tracer 2-(6-hydroxy-3-oxo-3H-xanthen-9-yl)-5-({[5-(4-{[7-(hydroxycarbamoyl)-2H,3H,4H,5H-thieno[2,3-f][1,4]oxazepine-4-carbonyl]amino}phenoxy)pentyl]carbamothioyl}amino)benzoic acid from HDAC6 was measured in vitro using a TR-FRET assay. The assays were performed in 1536-well plates in a total volume of 6 μL in assay buffer consisting of 50 mM HEPES pH 7.5, 50 mM NaCl, 50 mM KCl, 0.01% Triton X-100, 0.5 mM GSH, 0.03% BGG, 0.01% BSA.
For concentration response curves (IC50 determination), Compounds were serially diluted 3-fold from 2 mM highest concentration to generate a 10-point concentration gradient. To perform the assay, 30 nL of compound gradient solutions were transferred to the assay plate using the ECHO acoustic dispenser to achieve a final concentration range of 10 μM to 0.000508 uM in 6 μL reaction. 3 μL of HDAC6 in assay buffer were added to the assay plates and pre-incubate at room temp. for 30 mins. After pre-incubation, 3 μL of the tracer and TB-anti-GST antibody mix were added to the assay plates. The final concentrations of HDAC6, tracer, and TB-anti-GST antibody for each assay are 2 nM, 1 nM, and 0.5 nM, respectively. Binding reactions were equilibrated at 25° C. for an additional 6 hours, then read in endpoint mode on the BMG PheraStar (BMG labtech) equipped with a 337-520-490 optical module. The ratio of the 520/490 nm emission was calculated to determine the relative amounts of HDAC6 and tracer complex residue in each well.
The percent inhibition of HDAC6 (IC50) was calculated according to the following equation.
As set forth in Table 1, “A” indicates an HDAC6 IC50 value of less than 200 nM; “B” indicates an HDAC6 IC50 value of greater than or equal to 200 nM and less than 500 nM; and “C” indicates an HDAC6 IC50 value of greater than or equal to 500 nM and less than 5 μM.
The term IC50 denotes the concentration that gives 50% inhibition. Low values mean higher potency, high ones lower potency. On to `CC1(C(=O)N2Cc3ccc(-c4noc(C(F)(F)F)n4)cc3OC[C@@H]2c2ccccc2)COC1` [Compound 5, (3S)-4-[(3-methyloxetan-3-yl)carbonyl]-3-phenyl-8-[5-(trifluoromethyl)-1,2,4-oxadiazol-3-yl]-3,5-dihydro-2H-1,4-benzoxazepine], for which the concentration for half-maximal inhibition (IC50) was below 200 nM.

The compound `O=C(C1CCOCC1)N1CCOc2cc(-c3noc(C(F)(F)F)n3)ccc2C1` [Compound 54, 4-[(oxan-4-yl)carbonyl]-8-[5-(trifluoromethyl)-1,2,4-oxadiazol-3-yl]-3,5-dihydro-2H-1,4-benzoxazepine] gave an IC50 of 200 to 500 nM.

Consider `C[C@H]1COc2cc(-c3noc(C(F)(F)F)n3)cc(F)c2CN1C(=O)CO` [Compound 40, 1-[(3S)-6-fluoro-3-methyl-8-[5-(trifluoromethyl)-1,2,4-oxadiazol-3-yl]-3,5-dihydro-2H-1,4-benzoxazepin-4-yl]-2-hydroxyethanone], for which the IC50 is 200 to 500 nM.

Regarding `CC1(C(=O)N2Cc3ccc(-c4noc(C(F)(F)F)n4)cc3OC[C@@H]2c2ccccc2)CCCOC1` (single isomer, unassigned) [Compound 13], the IC50 was below 200 nM.

For the compound `CC(C)(C)C(=O)N1Cc2ccc(-c3noc(C(F)(F)F)n3)cc2OC[C@@H]1c1ccccc1` [Compound 23, 2,2-dimethyl-1-[(3S)-3-phenyl-8-[5-(trifluoromethyl)-1,2,4-oxadiazol-3-yl]-3,5-dihydro-2H-1,4-benzoxazepin-4-yl]propan-1-one], the IC50 lay in the range of 200 to 500 nM.

In turn, `C[C@H]1COc2cc(-c3noc(C(F)(F)F)n3)ccc2CN1C(=O)C(C)(C)C` [Compound 17, 2,2-dimethyl-1-[(3S)-3-methyl-8-[5-(trifluoromethyl)-1,2,4-oxadiazol-3-yl]-3,5-dihydro-2H-1,4-benzoxazepin-4-yl]propan-1-one] had an IC50 below 200 nM.

`C[C@H]1COc2cc(-c3noc(C(F)(F)F)n3)ccc2CN1S(=O)(=O)C(C)(C)C` [Compound 34, (3S)-3-methyl-4-(2-methylpropane-2-sulfonyl)-8-[5-(trifluoromethyl)-1,2,4-oxadiazol-3-yl]-3,5-dihydro-2H-1,4-benzoxazepine] came in with a half-inhibitory concentration (IC50) of 200 to 500 nM.

As to `CC1(C(=O)N2CCOc3cc(-c4noc(C(F)(F)F)n4)cc(F)c3C2)COC1` [Compound 37, 6-fluoro-4-[(3-methyloxetan-3-yl)carbonyl]-8-[5-(trifluoromethyl)-1,2,4-oxadiazol-3-yl]-3,5-dihydro-2H-1,4-benzoxazepine], the IC50 was below 200 nM.

The compound `CC(C)(C)C(=O)N1CCOc2cc(-c3noc(C(F)(F)F)n3)cc(F)c2C1` [Compound 29, 1-{6-fluoro-8-[5-(trifluoromethyl)-1,2,4-oxadiazol-3-yl]-3,5-dihydro-2H-1,4-benzoxazepin-4-yl}-2,2-dimethylpropan-1-one] had an IC50 below 200 nM.

Turning to `C[C@H]1COc2cc(-c3noc(C(F)(F)F)n3)cc(F)c2CN1C(=O)c1ccncc1` [Compound 49, (3S)-6-fluoro-3-methyl-4-[(pyridin-4-yl)carbonyl]-8-[5-(trifluoromethyl)-1,2,4-oxadiazol-3-yl]-3,5-dihydro-2H-1,4-benzoxazepine], the IC50 is 200 to 500 nM.

In turn, `CC1(C(=O)N2CCOc3cc(-c4noc(C(F)(F)F)n4)ccc3C2)COC1` [Compound 52, 4-[(3-methyloxetan-3-yl)carbonyl]-8-[5-(trifluoromethyl)-1,2,4-oxadiazol-3-yl]-3,5-dihydro-2H-1,4-benzoxazepine] returned an IC50 of 200 to 500 nM.

Compound `CC(C)C(=O)N1CCOc2cc(-c3noc(C(F)(F)F)n3)ccc2C1` [Compound 53, 2-methyl-1-{8-[5-(trifluoromethyl)-1,2,4-oxadiazol-3-yl]-3,5-dihydro-2H-1,4-benzoxazepin-4-yl}propan-1-one] registered a half-inhibitory concentration (IC50) of 200 to 500 nM.

For the compound `FC(F)(F)c1nc(-c2ccc3c(c2)OCCN(c2nc4ccccc4[nH]2)C3)no1` [Compound 51, 4-(1H-benzo[d]imidazol-2-yl)-8-(5-(trifluoromethyl)-1,2,4-oxadiazol-3-yl)-2,3,4,5-tetrahydrobenzo[f][1,4]oxazepine], the IC50 was below 200 nM.
